Assay [1] concerns the target T1, Full-length wild type HIV-1 integrase (SF1) (Human immunodeficiency virus type 1 group M subtype B, UniProt P04585).
T1 construct: made in house; host or cells: E. coli BL21 (DE3)
Nature of the assay: Integrase strand-transfer scintillation proximity assay. The class given is biochemical. The source says: The annealed product represents preprocessed viral ds-DNA derived from the LTR U5 sequence of the viral genome. A ds-DNA control to test for non-specific interactions was made using a 3′ di-deoxy derivative of oligonucleotide #1 annealed to oligonucleotide #2. The CA overhang at the 5′ end of the non-biotinylated strand of the ds-DNA was created artificially by using a complimentary DNA oligonucleotide shortened by 2 base pairs. This configuration eliminates the requisite 3′ processing step of the integrase enzyme prior to the strand-transfer mechanism.
The annealed product had overhanging 3′ ends of poly(dA). […] The radiolabeled product was purified using a NENSORB cartridge and stored in stabilized aqueous solution (PerkinElmer).
Reagents: Streptavidin-coated polyvinyltoluene (PVT) SPA beads were purchased from Amersham Biosciences (Piscataway, N.J.). Cesium chloride was purchased from Shelton Scientific, Inc. (Shelton, Conn.). White, polystyrene, flat-bottom, non-binding surface, 96-well plates were purchased from Corning. All other buffer components were purchased from Sigma (St. Louis, Mo.) unless otherwise indicated.
Enzyme Construction: Full-length wild type HIV-1 integrase (SF1) sequence (amino acids 1-289) was constructed in a pET24a vector (Novagen, Madison, Wis.).
Enzyme Purification: Full length wild-type HIV Integrase was expressed in E. coli BL21 (DE3) cells and induced with 1 mM isopropyl-1 thio-β-D-galactopyranoside (IPTG) when cells reached an optical density between 0.8-1.0 at 600 nm. Cells were lysed by microfluidation in 50 mM HEPES pH 7.0, 75 mM NaCl, 5 mM DTT, 1 mM 4-(2-Aminoethyl)benzenesulfonylfluoride HCl (AEBSF). Lysate was then centrifuged 20 minutes at 11 k rpm in GSA rotor in Sorvall RC-5B at 4° C. Supernant was discarded and pellet resuspended in 50 mM HEPES pH 7.0, 750 mM NaCl, 5 mM DTT, 1 mM AEBSF and homogenized in a 40 mL Dounce homogenizer for 20 minutes on ice. Homogenate was then centrifuged 20 minutes at 11 k rpm in SS34 rotor in Sorvall RC-5B at 4° C. Supernant was discarded and pellet resuspended in 50 mM HEPES pH 7.0, 750 mM NaCl, 25 mM CHAPS, 5 mM DTT, 1 mM AEBSF. Preparation was then centrifuged 20 minutes at 11 k rpm in SS34 rotor in Sorvall RC-5B at 4° C.
Supernant was then diluted 1:1 with 50 mM HEPES pH 7.0, 25 mM CHAPS, 1 mM DTT, 1 mM AEBSF and loaded onto a Q-Sepharose column pre-equilibrated with 50 mM HEPES, pH 7.0, 375 mM NaCl, 25 mM CHAPS, 1 mM DTT, 1 mM AEBSF. The flow through peak was collected and NaCl diluted to 0.1 M with 50 mM HEPES pH 7.0, 25 mM CHAPS, 1 mM DTT, 0.5 mM AEBSF and loaded onto a SP-Sepharose column pre-equilibrated with 50 mM HEPES pH 7.0, 100 mM NaCl, 25 mM CHAPS, 1 mM DTT, 0.5 mM AEBSF. After washing the column with the equilibration buffer, a 100 to 400 mM NaCl gradient was run. The eluted integrase was concentrated and run on a S-300 gel diffusion column using 50 mM HEPES pH 7.0, 500 mM NaCl, 25 mM CHAPS, 1 mM DTT, 0.5 mM AEBSF. […] All columns were run in a 4° C. cold room.
Viral DNA Bead Preparation: Streptavidin-coated SPA beads were suspended to 20 mg/mL in 25 mM 3-morpholinopropanesulfonic acid (MOPS) (pH 7.2) and 1.0% NaN3. Biotinylated viral DNA was bound to the hydrated SPA beads in a batch process by combining […] of ds-DNA to 1 mg of suspended SPA beads (10 μL of 50 μM viral DNA to 1 mL of 20 mg/mL SPA beads). The mixture was incubated at 22° C. for a minimum of 20 min. with occasional mixing followed by centrifugation at 2500 rpm for 10 min.
(In general: In a scintillation proximity assay essentially only radioactivity close to the scintillant gives light.)

Assay [2] relates to HIV-1 RF virus in CEM-SS cells. Put plainly: HIV-1 cell protection assay (XTT dye reduction). The class given is cell-based. As to the method:
Six days later, 50 μl of XTT solution (1 mg/ml XTT tetrazolium and 20 nM phenazine methosulfate) were added to the wells and the plates were reincubated for four hours. Viability, as determined by the amount of XTT formazan produced, was quantified spectrophotometrically by absorbance at 450 nm.
Data from CPE assays were expressed as the percent of formazan produced in compound-treated cells compared to formazan produced in wells of uninfected, compound-free cells. […] The 50% cytotoxicity concentration (CC50) was calculated as the concentration of compound that decreased the percentage of formazan produced in uninfected, compound-treated cells to 50% of that produced in uninfected, compound-free cells. The therapeutic index was calculated by dividing the cytotoxicity (CC50) by the antiviral activity (EC50).
Background: Tetrazolium dyes change colour on reduction, which living cells bring about.

The mark [3] stands for this setting: strand-transfer SPA, 246 nM integrase, 50 nM host DNA, 37° C., 50 min, read-out: IC50.
Setting [4] is: Human immunodeficiency virus 1, 144 h, RF strain of HIV-1, CEM-SS cells, XTT read-out after six days, read-out: EC50.
[5] abbreviates: Human immunodeficiency virus 1, CEM-SS, 144 h.

Like-named read-outs stand apart in the source and are kept apart here.

Broadly, the IC50 is the concentration that inhibits the measured activity by half. As usually defined, the EC50 is the concentration that produces a half-maximal response. In the case of “3-(4-fluorobenzyl)-7-hydroxy-1-[(2-propoxyethoxy)methyl]-3,7-dihydro-6H-pyrrolo[23-c]-17-naphthyridin-6-one [Example 89]”, in assay [1] (setting [3]), the IC50 is 10 nM. For the same molecule, in assay [2] (RF strain of HIV-1, CEM-SS cells, XTT read-out after six days, read-out: EC50), the EC50 is 1 nM.
Take `O=C1c2ncc3c(c(COCC(O)CO)cn3Cc3ccc(F)cc3)c2CCN1O` (stereo in doubt) [Example 24, 1-({[(2S)-2,3-dihydroxypropyl]oxy}methyl)-3-(4-fluorobenzyl)-7-hydroxy-3,7,8,9-tetrahydro-6H-pyrrolo[2 3-c]-1,7-naphthyridin-6-one]: in assay [1] (setting [3]), the IC50 came out at 14 nM. The concentration giving a half-maximal response (EC50) in assay [2] (setting [4]) was 4 nM.
Regarding `CCCCC1Cc2c(ncc3c2ccn3Cc2ccc(F)cc2)C(=O)N1O` (centres unmarked) [Example 1, 8-butyl-3-(4-fluorobenzyl)-7-hydroxy-3,7,8,9-tetrahydro-6H-pyrrolo[2,3-c]-1,7-naphthyridin-6-one], the half-maximal effective concentration (EC50) in assay [2] (setting [4]) came out at 460 nM.
The same measure, in the same setting: the result for `C[C@H](O)CNCc1cn(Cc2ccc(F)cc2)c2cnc3c(=O)n(O)ccc3c12` [Example 2, 3-(4-fluorobenzyl)-7-hydroxy-1-({[(2S)-2-hydroxypropyl]amino}methyl)-3,7-dihydro-6H-pyrrolo[2,3-c]-1,7-naphthyridin-6-one] reads 60.9 nM; that for `CCN(C)Cc1cn(Cc2ccc(F)cc2)c2cnc3c(=O)n(O)ccc3c12` [Example 3, 1-{[ethyl(methyl)amino]methyl}-3-(4-fluorobenzyl)-7-hydroxy-3,7-dihydro-6H-pyrrolo[2,3-c]-1,7-naphthyridin-6-one], 2.5 nM; that for `CC(CN(C)C)NCc1cn(Cc2ccc(F)cc2)c2cnc3c(=O)n(O)ccc3c12` (centres unmarked) [Example 4, 1-({[2-(dimethylamino)-1-methylethyl]amino}methyl)-3-(4-fluorobenzyl)-7-hydroxy-3,7-dihydro-6H-pyrrolo[2,3-c]-1,7-naphthyridin-6-one], 51 nM.
Same read-out and setting: the result for `O=c1c2ncc3c(c(CN4CCC(CO)CC4)cn3Cc3ccc(F)cc3)c2ccn1O` [Example 5, 3-(4-fluorobenzyl)-7-hydroxy-1-{[4-(hydroxymethyl)piperidin-1-yl]methyl}-3,7-dihydro-6H-pyrrolo[2,3-c]-1,7-naphthyridin-6-one] reads 12 nM.
Same read-out and setting: the result for `O=c1c2ncc3c(c(CN4CCCC4)cn3Cc3ccc(F)cc3)c2ccn1O` [Example 6, 3-(4-fluorobenzyl)-7-hydroxy-1-(pyrrolidin-1-ylmethyl)-3,7-dihydro-6H-pyrrolo[2,3-c]-1,7-naphthyridin-6-one] reads 5.3 nM.
As for `CN(C)C(=O)c1cccc(-c2cn(Cc3ccc(F)cc3)c3cnc4c(=O)n(O)ccc4c23)c1` [Example 8, 3-[3-(4-fluorobenzyl)-7-hydroxy-6-oxo-6,7-dihydro-3H-pyrrolo[2,3-c]-1,7-naphthyridin-1-yl]-N,N-dimethylbenzamide], the IC50 in assay [1] (setting [3]) was 37 nM. In addition, the EC50 in assay [2] (setting [4]) is 5 nM.
On the same counts, the results for `O=c1c2ncc3c(c(-c4ccccn4)cn3Cc3ccc(F)cc3)c2ccn1O` [Example 9, 3-(4-fluorobenzyl)-7-hydroxy-1-pyridin-2-yl-3,7-dihydro-6H-pyrrolo[2,3-c]-1,7-naphthyridin-6-one] are 29 nM and 2 nM.
`O=C1c2ncc3c(ccn3Cc3ccc(F)cc3)c2C=CCN1O` [Example 10, 3-(4-fluorobenzyl)-7-hydroxy-7,8-dihydropyrrolo[3′,2′:4,5]pyrido[2,3-c]azepin-6(3H)-one] gave an IC50 in assay [1] of 17 nM. Besides, in assay [2] (setting [4]), the EC50 is 0.59 nM.
On to `CN(C)Cc1cn(Cc2ccc(F)cc2)c2cnc3c(c12)CCN(O)C3=O` [Example 12, 1-[(dimethylamino)methyl]-3-(4-fluorobenzyl)-7-hydroxy-3,7,8,9-tetrahydro-6H-pyrrolo[2,3-c]-1,7-naphthyridin-6-one], for which the EC50 in assay [2] (setting [5]) was 13 nM.
Same read-out and setting: the result for `O=C1c2ncc3c(c(S(=O)(=O)N4CCCC4)cn3Cc3ccc(F)cc3)c2CCN1O` [Example 13, 3-(4-fluorobenzyl)-7-hydroxyl(pyrrolidin-1-ylsulfonyl)-3,7,8,9-tetrahydro-6H-pyrrolo[2 3-c]-1,7-naphthyridin-6-one] reads 3 nM.
For the molecule `O=C1c2ncc3c(c(C(=O)N4CCCC4)cn3Cc3ccc(F)cc3)c2CCN1O` [Example 14, 3-(4-fluorobenzyl)-7-hydroxy-1-(pyrrolidin-1-ylcarbonyl)-3,7,8,9-tetrahydro-6H-pyrrolo[2,3-c]-1,7-naphthyridin-6-one], the IC50 in assay [1] (setting [3]) came out at 16 nM. Also, in assay [2] (setting [5]), the EC50 worked out at 7 nM.
On the same counts, the results for `COC1CCN(C(=O)c2cn(Cc3ccc(F)cc3)c3cnc4c(c23)CCN(O)C4=O)CC1` [Example 15, 3-(4-fluorobenzyl)-7-hydroxy-1-[(4-methoxypiperidin-1-yl)carbonyl]-3,7,8,9-tetrahydro-6H-pyrrolo[2,3-c]-1,7-naphthyridin-6-one] are 14 nM and 28 nM.
On the same counts, the results for `CN1CCN(C(=O)c2cn(Cc3ccc(F)cc3)c3cnc4c(c23)CCN(O)C4=O)CC1` [Example 17, 3-(4-fluorobenzyl)-7-hydroxy-1-[(4-methylpiperazin-1-yl)carbonyl]-3,7,8,9-tetrahydro-6H-pyrrolo[2,3-c]-1,7-naphthyridin-6-one] are 17 nM and 150 nM.
Molecule `O=C1c2ncc3c(c(CN4CCC(F)(F)C4)cn3Cc3ccc(F)cc3)c2CCN1O` [Example 37, 1-[(3,3-difluoropyrrolidin-1-yl)methyl]-3-(4-fluorobenzyl)-7-hydroxy-3,7,8,9-tetrahydro-6H-pyrrolo[2,3-c]-1,7-naphthyridin-6-one] registered an EC50 in assay [2] (setting [5]) of 1.5 nM.
On the same count and under the same terms, the result for `O=C1c2ncc3c(c(CN4CCCCC4)cn3Cc3ccc(F)cc3)c2CCN1O` [Example 38, 3-(4-fluorobenzyl)-7-hydroxy-1-(piperidin-1-ylmethyl)-3,7,8,9-tetrahydro-6H-pyrrolo[2,3-c]-1,7-naphthyridin-6-one] reads 5.4 nM; that for `COCCN(C)Cc1cn(Cc2ccc(F)cc2)c2cnc3c(c12)CCN(O)C3=O` [Example 77, 3-(4-fluorobenzyl)-7-hydroxy-1-{[(2-methoxyethyl)(methyl)amino]methyl}-3,7,8,9-tetrahydro-6H-pyrrolo[2,3-c]-1,7-naphthyridin-6-one], 2 nM.
On to `O=C1c2ncc3[nH]ccc3c2CCN1O` [Example 83, 7-hydroxy-3,7,8,9-tetrahydro-6H-pyrrolo[2,3-c]-1,7-naphthyridin-6-one], for which the EC50 in assay [2] (setting [4]) came out at 14 nM.
`N#Cc1cc(F)ccc1Cn1ccc2c3c(ncc21)C(=O)N(O)CC3` [Example 91, 5-fluoro-2-[(7-hydroxy-6-oxo-6,7,8,9-tetrahydro-3H-pyrrolo[2,3-c]-1,7-naphthyridin-3-yl)methyl]benzonitrile] yielded an EC50 in assay [2] (setting [5]) of 2 nM.

The values above are taken from patent US20070099915A1, “INHIBITORS OF THE HIV INTEGRASE ENZYME” (PFIZER INC., priority 2005, published 2007).
